Assay results published in patent publication US10793568B2, “Hormone receptor modulators for treating metabolic conditions and disorders” (ARDELYX, INC., priority 2016, dated 2020).

Molecular target: ligand binding domain of human FXR (Homo sapiens (Human), UniProt Q96RI1)
Test: FXR ligand binding assay (LanthaScreen TR-FRET, SRC2-2 peptide recruitment)
Conditions: for Emax: extent of activation relative to GW4064, read-out: % Efficacy
Description: The affinity of FXR ligands for the ligand binding domain of FXR was determined using a commercially available human FXR ligand binding assay (LanthaScreen, Thermofisher Cat # PV4833). […] Binding of FXR ligands to the FXR ligand binding domain promotes binding of the fluorescein-labelled SRC2-2 peptide. This causes a FRET signal between the terbium-labelled anti-GST antibody and the fluorescein-labelled SRC peptide which are both bound to the FXR ligand binding domain.
Test compounds are dissolved in DMSO and a 3-fold serial dilution series is generated, then further diluted into assay buffer. The compounds are mixed with 5 nM GST-tagged FXR ligand binding domain, 5 nM Tb-labelled anti-GST antibody and 500 nM fluorescein-labelled SRC2-2 peptide in a pH7.4 buffer. The reaction is incubated at room temperature for 1 hour, then the FRET signal is measured as the ratio of the 520 nm/495 nm emission following excitation at 340 nm. The change in FRET signal is plotted against the test article concentration and fit to a 3-parameter logistical equation. The concentration required to produce 50% activation is expressed as pEC50 (−log EC50), and the extent of activation is expressed relative to GW4064 as % activation.

[1] = -log EC50, concentration required to produce 50% activation

Chain of ligand binding domain of human FXR (Q96RI1 262-486): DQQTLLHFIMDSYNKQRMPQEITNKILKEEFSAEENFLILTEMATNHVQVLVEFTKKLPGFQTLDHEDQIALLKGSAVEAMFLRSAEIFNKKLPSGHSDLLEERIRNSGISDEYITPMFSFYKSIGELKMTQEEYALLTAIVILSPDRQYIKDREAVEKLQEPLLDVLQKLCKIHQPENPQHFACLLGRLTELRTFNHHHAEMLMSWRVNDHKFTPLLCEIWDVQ

SMILES	EC50 [1] [nM]	Emax [%]	pEC50 [1]
Cc1cc(C(=O)NO)ccc1N1C[C@@H]2C[C@H]1C[C@H]2OCc1c(-c2c(Cl)cccc2Cl)noc1C1CC1 [Compound I-139, 4-[(1S,4S,5R)-5-{[5-cyclopropyl-3-(2,6-dichlorophenyl)-1,2-oxazol-4-yl]methoxy}-2-azabicyclo[2.2.1]heptan-2-yl]-N-hydroxy-3-methylbenzamide]	0.631	132	–
O=C(O)c1ccc(N2C(=O)[C@@H]3C[C@H]2C[C@H]3OCc2c(-c3c(Cl)cccc3Cl)noc2C2CC2)cn1 [Compound I-321, 5-[(1S,4R,5R)-5-{[5-cyclopropyl-3-(2,6-dichlorophenyl)-1,2-oxazol-4-yl]methoxy}-3-oxo-2-azabicyclo[2.2.1]heptan-2-yl]pyridine-2-carboxylic Acid]	–	146	7.6
O=C(O)c1ccc(N2C(=O)[C@@H]3C[C@H]2C[C@H]3OCc2c(-c3c(Cl)cccc3Cl)noc2C2CC2)nc1 [Compound I-322, 6-[(1S,4R,5R)-5-{[5-cyclopropyl-3-(2,6-dichlorophenyl)-1,2-oxazol-4-yl]methoxy}-3-oxo-2-azabicyclo[2.2.1]heptan-2-yl]pyridine-3-carboxylic acid]	–	132	7.4
O=C(O)c1ncc(N2C(=O)[C@@H]3C[C@H]2C[C@H]3OCc2c(-c3c(Cl)cccc3Cl)noc2C2CC2)cn1 [Compound I-323, 5-[(1S,4R,5R)-5-{[5-cyclopropyl-3-(2,6-dichlorophenyl)-1,2-oxazol-4-yl]methoxy}-3-oxo-2-azabicyclo[2.2.1]heptan-2-yl]pyrimidine-2-carboxylic Acid]	–	103	6.4
O=C(O)c1cnc(N2C(=O)[C@@H]3C[C@H]2C[C@H]3OCc2c(-c3c(Cl)cccc3Cl)noc2C2CC2)cn1 [Compound I-324, 5-[(1S,4R,5R)-5-{[5-cyclopropyl-3-(2,6-dichlorophenyl)-1,2-oxazol-4-yl]methoxy}-3-oxo-2-azabicyclo[2.2.1]heptan-2-yl]pyrazine-2-carboxylic Acid]	–	140	7.1
O=C(O)c1ccc(N2C(=O)[C@@H]3C[C@H]2C[C@H]3OCc2c(-c3c(Cl)cccc3Cl)noc2C2CC2)nn1 [Compound I-325, 6-[(1S,4R,5R)-5-{[5-cyclopropyl-3-(2,6-dichlorophenyl)-1,2-oxazol-4-yl]methoxy}-3-oxo-2-azabicyclo[2.2.1]heptan-2-yl]pyridazine-3-carboxylic Acid]	–	104	6.6
O=C(O)c1ncc(N2C(=O)[C@@H]3C[C@H]2C[C@H]3OCc2c(-c3c(Cl)cccc3Cl)noc2C2CC2)cc1F [Compound I-326, 5-[(1S,4R,5R)-5-{[5-cyclopropyl-3-(2,6-dichlorophenyl)-1,2-oxazol-4-yl]methoxy}-3-oxo-2-azabicyclo[2.2.1]heptan-2-yl]-3-fluoropyridine-2-carboxylic Acid]	–	132	7.1
O=C(O)CCc1ccc(N2C(=O)[C@@H]3C[C@H]2C[C@H]3OCc2c(-c3c(Cl)cccc3Cl)noc2C2CC2)cn1 [Compound I-327, 3-{5-[(1S,4R,5R)-5-{[5-cyclopropyl-3-(2,6-dichlorophenyl)-1,2-oxazol-4-yl]methoxy}-3-oxo-2-azabicyclo[2.2.1]heptan-2-yl]pyridin-2-yl}propanoic Acid]	–	–	>5.5
O=C(O)CCc1ncc(N2C(=O)[C@@H]3C[C@H]2C[C@H]3OCc2c(-c3c(Cl)cccc3Cl)noc2C2CC2)cc1F [Compound I-328, 3-{5-[(1S,4R,5R)-5-{[5-cyclopropyl-3-(2,6-dichlorophenyl)-1,2-oxazol-4-yl]methoxy}-3-oxo-2-azabicyclo[2.2.1]heptan-2-yl]-3-fluoropyridin-2-yl}propanoic Acid]	–	87	6.9
CO[C@@H]1CCC[C@H]1S(=O)(=O)NC(=O)c1ncc(N2C(=O)[C@@H]3C[C@H]2C[C@H]3OCc2c(-c3c(Cl)cccc3Cl)noc2C2CC2)cc1F [Compound I-348, 5-[(1S,4R,5R)-5-{[5-cyclopropyl-3-(2,6-dichlorophenyl)-1,2-oxazol-4-yl]methoxy}-3-oxo-2-azabicyclo[2.2.1]heptan-2-yl]-3-fluoro-N-{[(1R,2R)-2-methoxycyclopentyl]sulfonyl}pyridine-2-carboxamide]	–	171	8
O=C(NS(=O)(=O)[C@@H]1CCC[C@H]1O)c1ncc(N2C(=O)[C@@H]3C[C@H]2C[C@H]3OCc2c(-c3c(Cl)cccc3Cl)noc2C2CC2)cc1F [Compound I-349, 5-[(1S,4R,5R)-5-{[5-cyclopropyl-3-(2,6-dichlorophenyl)-1,2-oxazol-4-yl]methoxy}-3-oxo-2-azabicyclo[2.2.1]heptan-2-yl]-3-fluoro-N-{[(1R,2R)-2-hydroxycyclopentyl]sulfonyl}pyridine-2-carboxamide]	–	171	8.2
O=C(NS(=O)(=O)[C@@H]1CCC[C@H]1O)c1ccc(N2C(=O)[C@@H]3C[C@H]2C[C@H]3OCc2c(-c3c(Cl)cccc3Cl)noc2C2CC2)cn1 [Compound I-350, 5-[(1S,4R,5R)-5-{[5-cyclopropyl-3-(2,6-dichlorophenyl)-1,2-oxazol-4-yl]methoxy}-3-oxo-2-azabicyclo[2.2.1]heptan-2-yl]-N-{[(1R,2R)-2-hydroxycyclopentyl]sulfonyl}pyridine-2-carboxamide]	–	170	8.1
O=C(NS(=O)(=O)C1CC1)c1ccc(N2C(=O)[C@@H]3C[C@H]2C[C@H]3OCc2c(-c3c(Cl)cccc3Cl)noc2C2CC2)cn1 [Compound I-351, 5-((1S,4R,5R)-5-((5-cyclopropyl-3-(2,6-dichlorophenyl)isoxazol-4-yl)methoxy)-3-oxo-2-azabicyclo[2.2.1]heptan-2-yl)-N-(cyclopropylsulfonyl)picolinamide]	–	132	7.6
O=C(NS(=O)(=O)C1CCOCC1)c1ccc(N2C(=O)[C@@H]3C[C@H]2C[C@H]3OCc2c(-c3c(Cl)cccc3Cl)noc2C2CC2)cn1 [Compound I-352, 5-((1S,4R,5R)-5-((5-cyclopropyl-3-(2,6-dichlorophenyl)isoxazol-4-yl)methoxy)-3-oxo-2-azabicyclo[2.2.1]heptan-2-yl)-N-((tetrahydro-2H-pyran-4-yl)sulfonyl)picolinamide]	–	154	8
O=C(NS(=O)(=O)C1CCCC1)c1ccc(N2C(=O)[C@@H]3C[C@H]2C[C@H]3OCc2c(-c3c(Cl)cccc3Cl)noc2C2CC2)cn1 [Compound I-353, N-(cyclopentylsulfonyl)-5-((1S,4R,5R)-5-((5-cyclopropyl-3-(2,6-dichlorophenyl)isoxazol-4-yl)methoxy)-3-oxo-2-azabicyclo[2.2.1]heptan-2-yl)picolinamide]	–	159	8.3
CC1(C)CC(S(=O)(=O)NC(=O)c2ccc(N3C(=O)[C@@H]4C[C@H]3C[C@H]4OCc3c(-c4c(Cl)cccc4Cl)noc3C3CC3)cn2)CCO1 (stereo partly drawn) [Compound I-354, 5-((1S,4R,5R)-5-((5-cyclopropyl-3-(2,6-dichlorophenyl)isoxazol-4-yl)methoxy)-3-oxo-2-azabicyclo[2.2.1]heptan-2-yl)-N-((2,2-dimethyltetrahydro-2H-pyran-4-yl)sulfonyl)picolinamide]	–	138	8.1
O=C(NS(=O)(=O)C1CC1)c1ncc(N2C(=O)[C@@H]3C[C@H]2C[C@H]3OCc2c(-c3c(Cl)cccc3Cl)noc2C2CC2)cc1F [Compound I-355, 5-((1S,4R,5R)-5-((5-cyclopropyl-3-(2,6-dichlorophenyl)isoxazol-4-yl)methoxy)-3-oxo-2-azabicyclo[2.2.1]heptan-2-yl)-N-(cyclopropylsulfonyl)-3-fluoropicolinamide]	–	157	7.9
O=C(NS(=O)(=O)C1CCCC1)c1ncc(N2C(=O)[C@@H]3C[C@H]2C[C@H]3OCc2c(-c3c(Cl)cccc3Cl)noc2C2CC2)cc1F [Compound I-356, N-(cyclopentylsulfonyl)-5-((1S,4R,5R)-5-((5-cyclopropyl-3-(2,6-dichlorophenyl)isoxazol-4-yl)methoxy)-3-oxo-2-azabicyclo[2.2.1]heptan-2-yl)-3-fluoropicolinamide]	–	168	8.6
CC1(C)CC(S(=O)(=O)NC(=O)c2ncc(N3C(=O)[C@@H]4C[C@H]3C[C@H]4OCc3c(-c4c(Cl)cccc4Cl)noc3C3CC3)cc2F)CCO1 (stereo partly drawn) [Compound I-357, 5-((1S,4R,5R)-5-((5-cyclopropyl-3-(2,6-dichlorophenyl)isoxazol-4-yl)methoxy)-3-oxo-2-azabicyclo[2.2.1]heptan-2-yl)-N-((2,2-dimethyltetrahydro-2H-pyran-4-yl)sulfonyl)-3-fluoropicolinamide]	–	166	8.4
C[C@H]1[C@H]2C[C@H](C[C@@H]2OCc2c(-c3c(Cl)cccc3Cl)noc2C2CC2)N1c1ccc(C(=O)O)cc1 [Compound I-361, 4-[(1R,3S,4R,5S)-5-[[5-cyclopropyl-3-(2,6-dichlorophenyl)-1,2-oxazol-4-yl]methoxy]-3-methyl-2-azabicyclo[2.2.1]heptan-2-yl]benzoic acid]	–	52	6
C[C@@H]1[C@@H]2C[C@@H](C[C@H]2OCc2c(-c3c(Cl)cccc3Cl)noc2C2CC2)N1c1ccc(C(=O)O)c(F)c1 [Compound I-362, 4-[(1S,3R,4S,5R)-5-[[5-cyclopropyl-3-(2,6-dichlorophenyl)-1,2-oxazol-4-yl]methoxy]-3-methyl-2-azabicyclo[2.2.1]heptan-2-yl]-2-fluorobenzoic acid]	–	72	7.2
